Laboratory results published in ChEMBL document CHEMBL1926533, “Synthesis and biological evaluation of cyclopentane-linked alkyl phosphocholines as potential anticancer agents that act by inhibiting Akt phosphorylation” (Eur J Med Chem, 2012).

Key:
A549 [1] = experiment: Cytotoxicity against human A549 cells after 24 hrs by FACS analysis; type: functional, cell-based; conditions: A549, 24 h
A549 [2] = experiment: Inhibition of Akt phosphorylation in insulin-stimulated human A549 cells at 10 uM treated 2 hrs before insulin stimulation measured after 30 mins by ELISA; type: cell-based
MCF7 = experiment: Cytotoxicity against human MCF7 cells after 24 hrs by FACS analysis; type: functional, cell-based; conditions: MCF7, 24 h
[3] = Cytotoxicity against human KATO III cells after 24 hrs by FACS analysis; type: functional, cell-based, KATO III cell
[4] = Inhibition of Akt phosphorylation in insulin-stimulated human A549 cells treated 2 hrs before insulin stimulation measured after 30 mins by ELISA; type: cell-based
A549 [5] = experiment: Ratio of miltefosine IC50 to compound IC50 for inhibition of Akt phosphorylation in insulin-stimulated human A549 cells; type: cell-based
A549 [6] = experiment: Ratio of perifosine IC50 to compound IC50 for inhibition of Akt phosphorylation in insulin-stimulated human A549 cells; type: cell-based
A549 [7] = experiment: Ratio of erufosine IC50 to compound IC50 for inhibition of Akt phosphorylation in insulin-stimulated human A549 cells; type: cell-based

CCCCCCCCCCCCOC[C@@H]1CCC[C@H]1OP(=O)([O-])OCC[N+](C)(C)C (racemic)
IC50 (A549 [1]): 11 µM | inhibition (A549 [2]): 36.2% | IC50 (MCF7): 11.8 µM | IC50 [3]: 10.6 µM

CCCCCCCCCCCCCOC[C@@H]1CCC[C@H]1OP(=O)([O-])OCC[N+](C)(C)C (racemic)
IC50 (A549 [1]): 6.1 µM | inhibition (A549 [2]): 65.4% | IC50 (MCF7): 7.7 µM | IC50 [4]: 6.6 µM | IC50 [3]: 10.2 µM

CCCCCCCCCCCCCCCCCCOC[C@@H]1CCC[C@H]1OP(=O)([O-])OCC[N+](C)(C)C (racemic)
IC50 (A549 [1]): 10.8 µM | inhibition (A549 [2]): 63.4% | IC50 (MCF7): 13.8 µM | IC50 [4]: 10.3 µM | IC50 [3]: 10.4 µM

CCCCCCCCCCCCCCCCCCCCOC[C@@H]1CCC[C@H]1OP(=O)([O-])OCC[N+](C)(C)C (racemic)
IC50 (A549 [1]): 6.4 µM | inhibition (A549 [2]): 74.4% | Ratio IC50 (A549 [5]): 3 | IC50 (MCF7): 10.8 µM | Ratio IC50 (A549 [6]): 2 | Ratio IC50 (A549 [7]): 3 | IC50 [4]: 3.6 µM | IC50 [3]: 8.7 µM

CCCCCCCCCCCCCCCCCCCCCCOC[C@@H]1CCC[C@H]1OP(=O)([O-])OCC[N+](C)(C)C (racemic)
IC50 (A549 [1]): 16 µM | inhibition (A549 [2]): 58.2% | IC50 (MCF7): 16.3 µM | IC50 [4]: 10 µM | IC50 [3]: 11.9 µM

CCCCCCCCCCCCO[C@@H]1CCC[C@H]1COP(=O)([O-])OCC[N+](C)(C)C (racemic)
inhibition (A549 [2]): 31.7% | IC50 (MCF7): 14.7 µM | IC50 [3]: 10.4 µM

CCCCCCCCCCCCCO[C@@H]1CCC[C@H]1COP(=O)([O-])OCC[N+](C)(C)C (racemic)
IC50 (A549 [1]): 9.4 µM | inhibition (A549 [2]): 40.8% | IC50 (MCF7): 17.8 µM | IC50 [3]: 10.1 µM

CCCCCCCCCCCCCCCCCCO[C@@H]1CCC[C@H]1COP(=O)([O-])OCC[N+](C)(C)C (racemic)
IC50 (A549 [1]): 19.3 µM | inhibition (A549 [2]): 32.4% | IC50 (MCF7): 15.7 µM | IC50 [3]: 8.2 µM

CCCCCCCCCCCCCCCCCCCCO[C@@H]1CCC[C@H]1COP(=O)([O-])OCC[N+](C)(C)C (racemic)
IC50 (A549 [1]): 9.8 µM | inhibition (A549 [2]): 58.9% | IC50 (MCF7): 15.6 µM | IC50 [4]: 9.1 µM | IC50 [3]: 7.7 µM

CCCCCCCCCCCCCCCCCCCCCCO[C@@H]1CCC[C@H]1COP(=O)([O-])OCC[N+](C)(C)C (racemic)
IC50 (A549 [1]): 11.1 µM | inhibition (A549 [2]): 68% | IC50 (MCF7): 19.5 µM | IC50 [4]: 6.5 µM | IC50 [3]: 17.6 µM

CCCCCCCCCCCCO[C@H]1CCC[C@H]1COP(=O)([O-])OCC[N+](C)(C)C (racemic)
IC50 (A549 [1]): 26.3 µM | inhibition (A549 [2]): 30.4% | IC50 (MCF7): 24.2 µM | IC50 [3]: 7.4 µM

CCCCCCCCCCCCCO[C@H]1CCC[C@H]1COP(=O)([O-])OCC[N+](C)(C)C (racemic)
IC50 (A549 [1]): 10.2 µM | inhibition (A549 [2]): 44.7% | IC50 (MCF7): 10.7 µM | IC50 [3]: 12.1 µM

CCCCCCCCCCCCCCCCCCO[C@H]1CCC[C@H]1COP(=O)([O-])OCC[N+](C)(C)C (racemic)
IC50 (A549 [1]): 17.8 µM | inhibition (A549 [2]): 35.2% | IC50 (MCF7): 13.2 µM | IC50 [3]: 9.2 µM

CCCCCCCCCCCCCCCCCCCCO[C@H]1CCC[C@H]1COP(=O)([O-])OCC[N+](C)(C)C (racemic)
IC50 (A549 [1]): 9.7 µM | inhibition (A549 [2]): 54.4% | IC50 (MCF7): 16.3 µM | IC50 [4]: 16.3 µM | IC50 [3]: 8.8 µM

CCCCCCCCCCCCCCCCCCCCCCO[C@H]1CCC[C@H]1COP(=O)([O-])OCC[N+](C)(C)C (racemic)
IC50 (A549 [1]): 23.3 µM | inhibition (A549 [2]): 36.2% | IC50 (MCF7): 12.8 µM | IC50 [3]: 8.6 µM

CCCCCCCCCCCCCCCCOP(=O)([O-])OCC[N+](C)(C)C [MILTEFOSINE]
IC50 (A549 [1]): 9.7 µM | inhibition (A549 [2]): 56.3% | IC50 (MCF7): 11.4 µM | IC50 [4]: 9.6 µM | IC50 [3]: 12.1 µM

CCCCCCCCCCCCCCCCCCOP(=O)([O-])OC1CC[N+](C)(C)CC1 [PERIFOSINE]
IC50 (A549 [1]): 7 µM | inhibition (A549 [2]): 68% | IC50 (MCF7): 13.3 µM | IC50 [4]: 5.3 µM | IC50 [3]: 12.8 µM
